# From patent US20180133211A1, “METHODS AND MATERIALS FOR PROMOTING BONE FORMATION” (Mayo Foundation for Medical Education and Research, priority 2015, published 2018)
# Columns and labels:
# Type in all cases: cell-based, mouse
# MC3T3-E1 cells [1] = test: Cell metabolic activity (EZ4U, MTT similar assay); settings: 24 hours of treatment, read-out: half-maximal effective concentration (EC50), cell metabolic activity
# Protocol: (§1) To assess cell metabolic activity, a commercially available, MTT similar assay (EZ4U; Biomedica, Vienna, Austria) was used. For this purpose, the cell lines were incubated with increasing concentrations of L- or DL-SFN.
# MLO-Y4 cells [2] = test: Cell metabolic activity (EZ4U, MTT similar assay); settings: 24 hours of treatment, read-out: half-maximal effective concentration (EC50), cell metabolic activity
# Protocol: as §1
# RAW 264.7 cells [3] = test: Cell metabolic activity (EZ4U, MTT similar assay); settings: read-out: half-maximal effective concentration (EC50), cell metabolic activity
# Protocol: as §1
# RAW 264.7 cells [4] = test: Cell count (proliferation/viability); settings: RAW 264.7, 24 hours, doses of 3 μM and higher
# Protocol: Cell lines were seeded in 24-well culture dishes at a density of 20,000/cm^2 and were either left untreated (controls) or treated with L- or DL-SFN at the indicated concentrations for up to 48 hours. Thereafter, cells were detached with 0.001% pronase E, and the number of viable cells was assessed with Casy cell counter (Schaerfe Systems, Reutlingen, Germany). Each experiment was performed in quadruplicate, and experiments were carried out twice. For long term experiments, cell number was determined using DNA amount as surrogate. Cell layers were washed with PBS and fixed for 20 minutes with 4% PFA. Thereafter, Hoechst 33258 dye (Polysciences, Warrington, Pa., USA) was added (1 μg/mL), and, after an incubation of 15 minutes at room temperature, the fluorescence was measured (excitation 360, emission 465 nm). The amount of DNA was estimated using a standard curve prepared from calf thymus DNA (Roche).
# MC3T3-E1 cells [5] = test: Caspase activity (CASPASE-GLO); settings: MC3T3-E1, 3 μM, 24 hours
# Protocol: (§2) Caspase 3/7 and caspase 8 activities were measured by using the CASPASE-GLO® 3/7 and CASPASE-GLO® 8 assay Kit (Promega, Madison, Wis., USA) following manufactures instructions. Briefly, after treatments, cells were lysed, and substrate cleavage by caspases was measured by the generated luminescent signal with a 96 multi-well luminometer (Glomax, Promega). Each experiment was performed in quintuplicate and experiments were carried out twice.
# MLO-Y4 cells [6] = test: Caspase activity (CASPASE-GLO); settings: MLO-Y4, 3 μM, 24 hours
# Protocol: as §2
# RAW 264.7 cells [7] = test: Caspase activity (CASPASE-GLO); settings: RAW 264.7, 3 μM, 24 hours
# Protocol: as §2
# BMSCs = test: ECM mineralization by Alizarin Red stain; settings: long-term treatment in osteogenic media
# Protocol: Mouse bone marrow mesenchymal stem cells were isolated from aseptically dissected long bones of 6-week old C57BL/6 mice (Himberg, Austria). The marrow cavities were flushed with sterile medium using a 25-gauge needle, and the culture was established in α-MEM supplemented with 10% FCS and […]. After 48 hours of culture at 5% CO2 and 37° C., the non-adherent cells were removed by gentle rinsing with PBS. At confluence, cells were harvested and seeded at a density of 3,000/cm^2 for cell experiments. For osteogenic differentiation, cells were cultured in α-MEM supplemented with 10% FBS, […], 100 nM dexamethasone, 10 mM β-glycerophosphate, and 50 μg/mL ascorbic acid with or without L- or DL-SFN. Culture medium was renewed twice a week, and cells were cultured for the periods indicated in the result section.
# Calvariae from 2 to 3-day-old and from 7-week old C57BL/6 mice were dissected aseptically. […] Thereafter, one part of the calvariae were fixed for 1 hour in 4% para-formaldehyde (PFA), and mineralization was measured by Alizarin Red S stain (Sigma-Aldrich). […] Alizarin Red S absorbance was measured at 562 nm in a multi-plate reader (Tecan, Maennedorf, Switzerland) and normalized to total protein amount measured by bicinchoninic acid assay (Thermo Fisher Scientific, Waltham, Mass., USA). […]
# MC3T3-E1 cells [8] = test: Global cytosine 5-hydroxymethylation (5hmC); settings: MC3T3-E1, 3 μM, 16 hours
# Protocol: (§3) Cells were fixed with 4% paraformaldehyde in PBS for 20 minutes at room temperature and permeabilized with 0.2% triton in 4% paraformaldehyde in PBS. Thereafter, cell layers were blocked for 20 minutes with 10% blocking reagent (Roche) and incubated for one further hour with 0.5 μg/mL anti-5hmC antibody (Abgent). Afterwards, the cells were washed thrice with PBS and incubated for one further hour with an Alexa488 labeled secondary antibody (Invitrogen) diluted 1:300 in blocking buffer. Finally, nuclei were stained with Hoechst 33258 dye (Polysciences).
# (§4) For immunostaining, cell slides were mounted with VECTASHIELD® mounting media, and immunofluorescence was visualized on a Leica laser-scanning microscope. No signal was found by using only the Alexa488 labeled secondary antibody (Invitrogen). For quantification of global cytosine 5hmC, the fluorescence in the plates was measured with a multiwell plate reader (Tecan). The amount of DNA (nuclei signal) was estimated using a standard curve prepared from calf thymus DNA (Roche). The signal of the fluorescence of the 5hmC staining was normalized to the amount of DNA. Also, in this case, no signals were found when only the Alexa488 labeled secondary antibody (Invitrogen) was used.
# MLO-Y4 cells [9] = test: Global cytosine 5-hydroxymethylation (5hmC); settings: MLO-Y4, 3 μM, 16 hours
# Protocol: as §3, §4
# RAW 264.7 cells [10] = test: Global cytosine 5-hydroxymethylation (5hmC); settings: RAW 264.7, 3 μM, 16 hours
# Protocol: as §3, §4
# MC3T3-E1 cells [11] = test: ECM mineralization by Alizarin Red stain; settings: MC3T3-E1, long-term treatment in osteogenic media
# Protocol: Differentiation of MC3T3-E1 cells was induced with 50 μg/mL ascorbic acid (Sigma-Aldrich) and 5 mM β-glycerophosphate (Sigma-Aldrich) in medium containing 5% FBS. RAW 264.7 cells were cultured in Dulbecco's modified Eagle's medium (DMEM, Invitrogen, Carlsbad, Calif., USA) supplemented with 10% fetal bovine serum (Hyclone) and 2 mM glutamine (Gibco, Carlsbad, Calif., USA). Cells were seeded in culture dishes at a density of 20,000 cells/cm^2 and cultured overnight unless stated otherwise. Before cells were treated with compounds, the culture medium was changed.
# Calvariae from 2 to 3-day-old and from 7-week old C57BL/6 mice were dissected aseptically. The calvarial bone explants were cultured in 48-well plates in α-MEM (Biochrom) containing 10% FCS (Biochrom), 50 μg/mL ascorbic acid (Sigma-Aldrich), 5 mM β-glycerophosphate (Sigma-Aldrich), and 10 μg/mL gentamicin (Sigma-Aldrich). The day after dissection, medium was changed, and a part of the explants was treated with 3 μM L- or DL-SFN for 12 days. Thereafter, one part of the calvariae were fixed for 1 hour in 4% para-formaldehyde (PFA), and mineralization was measured by Alizarin Red S stain (Sigma-Aldrich). For this purpose, Alizarin Red S dye was extracted using 10% cetylpyridinium chloride (CPC) in 10 mM sodiumphosphate (pH=7.0) for 45 minutes at room temperature. Alizarin Red S absorbance was measured at 562 nm in a multi-plate reader (Tecan, Maennedorf, Switzerland) and normalized to total protein amount measured by bicinchoninic acid assay (Thermo Fisher Scientific, Waltham, Mass., USA). From the other part of the calvariae, total RNA was extracted.
smiles,measurement,setting,value
C[S+]([O-])CCCCN=C=S (racemic) [DL-SFN],EC50,MC3T3-E1 cells [1],~13 µM
same,EC50,MLO-Y4 cells [2],~6 µM
same,EC50,RAW 264.7 cells [3],~6.01 µM
same,number of viable cells,RAW 264.7 cells [4],reduced
same,activities of the caspases 3/7,MC3T3-E1 cells [5],significant increase
same,activity of caspase 8,MC3T3-E1 cells [5],significantly increased
same,activities of the caspases 3/7,MLO-Y4 cells [6],significant increase
same,activity of caspase 8,MLO-Y4 cells [6],significantly increased
same,Caspase 8 and Caspase 3/7 activity,RAW 264.7 cells [7],stimulated
same,ECM mineralization,BMSCs,significantly increased
same,global 5hmC,MC3T3-E1 cells [8],significant global increase
same,5hmC levels,MLO-Y4 cells [9],did not elevate
same,increase of global levels of 5hmC,RAW 264.7 cells [10],~3 fold
same,ECM mineralization,MC3T3-E1 cells [11],significantly increased
C[S+]([O-])CCCCN=C=S [L-SFN],EC50,MC3T3-E1 cells [1],~48 µM
same,EC50,MLO-Y4 cells [2],~11 µM
same,EC50,RAW 264.7 cells [3],~10.1 µM
same,number of viable cells,RAW 264.7 cells [4],reduced
same,activity of caspase 8,MC3T3-E1 cells [5],significantly increased
same,activity of caspase 8,MLO-Y4 cells [6],significantly increased
same,Caspase 8 and Caspase 3/7 activity,RAW 264.7 cells [7],stimulated
same,ECM mineralization,BMSCs,significantly increased
same,global 5hmC,MC3T3-E1 cells [8],significant global increase
same,5hmC levels,MLO-Y4 cells [9],did not elevate
same,increase of global levels of 5hmC,RAW 264.7 cells [10],< 2 fold
same,ECM mineralization,MC3T3-E1 cells [11],significantly increased
